pIC50, pKi: −log10 of the molar value. Where “and” joins values, the source holds several entries; their conditions need not be identical. Identical values can stand only once. Counter-ions that a name gives are not always drawn.
What was measured:
[1] = system: leukemia MV4-11 cell line; test: Cell viability (CCK-8), leukemia MV4-11; format: cell-based; conditions: Homo sapiens, 96 h; MV4-11 cells, 4 days, CCK-8, 50% inhibition of cell growth
Protocol: 3. Determination of cell viability of the compound
The sample to be tested was dissolved with 100% dimethyl sulfoxide to prepare a 20 mM stock solution of the compound, which was diluted with 100% dimethyl sulfoxide to the highest compound concentration required for the experiment (2.5 mM).
First, 145 uL of a complete cell culture medium was added to wells B1-G1 of a 96-well flat-bottomed tansparent cell culture plate, and 100 uL of the complete medium was added to wells B2-G12, respectively. Then, 5 uL of the 2.5 mM solution of the compound was added to wells B1-D1 and E1-G1 respectively, and then diluted gradiently by 3-folds to B12-D12 and E12-G12 in sequence. Finally, 50 uL of the solution of the cells to be tested was added to each well, with about 3000-5000 cells per well, and a total volume of 150 uL per well.
In the experiment, in addition to the tested compound, two other control groups were set up: 1) a control group adding the cells and the complete medium, but without adding the compound; 2) a control group adding the complete medium only, without adding the cells and the compound. The 96-well plate was placed in a 37° C. cell culture incubator containing 5% carbon dioxide for 4 days, added with 15 uL of a CCK-8 reagent per well, and then incubated at 37° C. for 2-4 hours. The 96-well plate was read on a TECAN microplate reader, and the absorbance value at 450 nm wavelength was taken.
The effect of different concentrations of the compound on cell viability was calculated by the following equation: [absorption value of the experimental group−absorption value of pure cell culture medium without the cells or the compound]/[absorption value of the control group with the tumor cells but no testing compound−absorption value of pure cell culture medium without the cell or the compound]×100%.
The above data were precessed by software, and the IC50 value was the concentration of the compound corresponding to the 50% inhibition rate of cell growth.
Based on the above test method of the compound on cell viability, a variety of […] cancer cell lines were tested, using multiple myeloma MM.1S, breast cancer MDA-MB-231 and leukemia MV4-11 cell lines as exemples. Using this test method, the IC50 values of partial compounds in the examples of the present invention measured in multiple myeloma MM.1S, breast cancer MDA-MB-231 cell lines and leukemia MV4-11 cell lines were shown in Table 2.

BRD4 BD2 protein = BRD4 BD2 protein (Homo sapiens (Human), UniProt O60885); test: Fluorescence polarization binding affinity (Ki) with BRD4 BD2 protein; conditions: fluorescence polarization; Ki calculated from IC50
BRD4 BD1 protein = BRD4 BD1 protein (Homo sapiens (Human), UniProt O60885); test: Fluorescence polarization binding affinity (Ki) with BRD4 BD1 protein; conditions: fluorescence polarization; Ki calculated from IC50
[2] = system: multiple myeloma MM.1S cell line; test: Cell viability (CCK-8), multiple myeloma MM.1S; format: cell-based; conditions: Homo sapiens, MM1.S, 96 h, MM.1S cells, 4 days, CCK-8, 50% inhibition of cell growth
Procedure, shortened: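 Cells (about 3000-5000 per well) exposed to 3-fold serial dilutions of compound for 4 days at 37° C, 5% CO2. CCK-8 added 2-4 h, absorbance at 450 nm, viability normalised to untreated cells after medium-only blank subtraction; IC50 is concentration giving 50% growth inhibition.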

Row | SMILES | pKi (BRD4 BD2 protein) | pKi (BRD4 BD1 protein) | pIC50 [2] | pIC50 [1]
1 | CCN1CC=C(c2ccc3c(c2)C(Nc2cccc(Cl)c2)CCn2nnc(C)c2-3)CC1 (centres unmarked) [BH36, N-(3-chlorophenyl)-9-(1-ethyl-1,2,3,6-tetrahydropyridin-4-yl)-1-methyl-6,7-dihydro-5H-benzo[c][1,2,3]triazolo[1,5-a]azepin-7-amine 2,2,2-trifluoroacetate] | 7.86 and 7.80 | 6.14 and 5.85 | 6.84 | 7.24
2 | Cc1nnn2c1-c1ccc(C3=CCN(C4CCCCC4)CC3)cc1C(Nc1cccc(Cl)c1)CC2 (centres unmarked) [BH104, N-(3-chlorophenyl)-9-(1-cyclohexyl-1,2,3,6-tetrahydropyridin-4-yl)-1-methyl-6,7-dihydro-5H-benzo[c][1,2,3]triazolo[1,5-a]azepin-7-amine 2,2,2-trifluoroacetate] | 7.87 | 6.15 | 6.93 | 8.88
3 | Cc1nnn2c1-c1ccc(-c3cnn(C)c3)cc1C(Nc1ccccc1CN(C)C)CC2 (centres unmarked) [LC29, N-(2-((dimethylamino)methyl)phenyl)-1-methyl-9-(1-methyl-1H-pyrazol-4-yl)-6,7-dihydro-5H-benzo[c][1,2,3]triazolo[1,5-a]azepin-7-amine] | 8.12 | 7.71 | 7.91 | –
4 | Cc1nnn2c1-c1ccc(-c3cnn(C)c3)cc1C(Nc1cccc(CN(C)C)c1)CC2 (centres unmarked) [LC31, N-(3-((dimethylamino)methyl)phenyl)-1-methyl-9-(1-methyl-1H-pyrazol-4-yl)-6,7-dihydro-5H-benzo[c][1,2,3]triazolo[1,5-a]azepin-7-amine] | 7.68 | 7.03 | 7.55 | –
5 | Cc1nnn2c1-c1ccc(C3=CCNCC3)cc1C(Nc1cccc(OCCO)c1)CC2 (centres unmarked) [LC56, 2-(3-((1-methyl-9-(1,2,3,6-tetrahydropyridin-4-yl)-6,7-dihydro-5H-benzo[c][1,2,3]triazolo[1,5-a]azepin-7-yl)amino)phenoxy)ethan-1-ol 2,2,2-trifluoroacetate] | 7.15 | 5.82 | 5.54 | –
6 | Cc1nnn2c1-c1ccc(C3=CCNCC3)cc1C(Nc1cccc(Cl)c1)CC2 (centres unmarked) [LC79, N-(3-chlorophenyl)-1-methyl-9-(1,2,3,6-tetrahydropyridin-4-yl)-6,7-dihydro-5H-benzo[c][1,2,3]triazolo[1,5-a]azepin-7-amine 2,2,2-trifluoroacetate] | 7.47 | 6.19 | 6.03 | –
7 | Cc1nnn2c1-c1ccc(C3=CCNCC3)cc1C(Nc1cccc(O)c1)CC2 (centres unmarked) [LC97, 3-((1-methyl-9-(1,2,3,6-tetrahydropyridin-4-yl)-6,7-dihydro-5H-benzo[c][1,2,3]triazolo[1,5-a]azepin-7-yl)amino)phenol 2,2,2-trifluoroacetate] | 7.39 | 6.10 | 6.23 | –
8 | Cc1nnn2c1-c1ccc(C3=CCN(C)CC3)cc1C(Nc1cccc(Cl)c1)CC2 (centres unmarked) [LD07, N-(3-chlorophenyl)-1-methyl-9-(1-methyl-1,2,3,6-tetrahydropyridin-4-yl)-6,7-dihydro-5H-benzo[c][1,2,3]triazolo[1,5-a]azepin-7-amine 2,2,2-trifluoroacetate] | 7.48 | 6.11 | 6.84 | –
9 | CC(=O)N1CC=C(c2ccc3c(c2)C(Nc2ccc(Cl)cc2)CCn2nnc(C)c2-3)CC1 (centres unmarked) [LD19, 1-(4-(7-((4-chlorophenyl)amino)-1-methyl-6,7-dihydro-5H-benzo[c][1,2,3]triazolo[1,5-a]azepin-9-yl)-3,6-dihydropyridin-1(2H)-yl)ethan-1-one] | 8.01 | 7.41 | > 9.00 | –
10 | CC(=O)N1CC=C(c2ccc3c(c2)C(Nc2ccc(F)c(Cl)c2)CCn2nnc(C)c2-3)CC1 (centres unmarked) [LD77, 1-(4-(7-((3-chloro-4-fluorophenyl)amino)-1-methyl-6,7-dihydro-5H-benzo[c][1,2,3]triazolo[1,5-a]azepin-9-yl)-3,6-dihydropyridin-1(2H)-yl)ethan-1-one] | 8.40 and 8.50 | 7.09 | 8.73 | –
11 | Cc1nnn2c1-c1ccc(-c3ccncc3)cc1C(Nc1ccc(Cl)cc1)CC2 (centres unmarked) [RA188, N-(4-chlorophenyl)-1-methyl-9-(pyridin-4-yl)-6,7-dihydro-5H-benzo[c][1,2,3]triazolo[1,5-a]azepin-7-amine] | 7.77 | 7.13 | 8.07 | –
12 | Cc1nnn2c1-c1ccc(-c3cccnc3)cc1C(Nc1ccc(Cl)cc1)CC2 (centres unmarked) [RA193, N-(4-chlorophenyl)-1-methyl-9-(pyridin-3-yl)-6,7-dihydro-5H-benzo[c][1,2,3]triazolo[1,5-a]azepin-7-amine] | 7.95 | 7.28 | 7.30 | –
13 | Cc1nnn2c1-c1ccc(-c3ccc(NC(=O)OC(C)(C)C)cc3)cc1C(Nc1ccc(Cl)cc1)CC2 (centres unmarked) [RA194, tert-butyl (4-(7-((4-chlorophenyl)amino)-1-methyl-6,7-dihydro-5H-benzo[c][1,2,3]triazolo[1,5-a]azepin-9-yl)phenyl)carbamate] | 7.62 | 7.54 | 6.48 | –
14 | Cc1nnn2c1-c1ccc(C3=CCNCC3)cc1C(Nc1ccc(Cl)cc1)CC2 (centres unmarked) [RB99, N-(4-chlorophenyl)-1-methyl-9-(1,2,3,6-tetrahydropyridin-4-yl)-6,7-dihydro-5H-benzo[c][1,2,3]triazolo[1,5-a]azepin-7-amine hydrochloride] | 7.71 | 6.37 | 6.67 | –

More lines, main results first:

Row | pKi (BRD4 BD2 protein) | pKi (BRD4 BD1 protein) | pIC50 [2] | SMILES | pIC50 [1]
15 | 7.78 | 7.43 | 7.77 | Cc1nnn2c1-c1ccc(-c3ccc(N)nc3)cc1C(Nc1ccc(Cl)cc1)CC2 (centres unmarked) [RB03, 9-(6-aminopyridin-3-yl)-N-(4-chlorophenyl)-1-methyl-6,7-dihydro-5H-benzo[c][1,2,3]triazolo[1,5-a]azepin-7-amine] | –
16 | 7.81 | 6.89 | 7.27 | Cc1nnn2c1-c1ccc(-c3cncnc3)cc1C(Nc1ccc(Cl)cc1)CC2 (centres unmarked) [RB06, N-(4-chlorophenyl)-1-methyl-9-(pyrimidin-5-yl)-6,7-dihydro-5H-benzo[c][1,2,3]triazolo[1,5-a]azepin-7-amine] | –
17 | 7.70 | 7.29 | 7.87 | Cc1nnn2c1-c1ccc(-c3cn[nH]c3)cc1C(Nc1ccc(Cl)cc1)CC2 (centres unmarked) [RB07, N-(4-chlorophenyl)-1-methyl-9-(1H-pyrazol-4-yl)-6,7-dihydro-5H-benzo[c][1,2,3]triazolo[1,5-a]azepin-7-amine] | –
18 | 7.89 | 7.05 | 6.49 | Cc1nnn2c1-c1ccc(-c3ccc4c(c3)OCO4)cc1C(Nc1ccc(Cl)cc1)CC2 (centres unmarked) [RB11, 9-(benzo[d][1,3]dioxo1-5-yl)-N-(4-chlorophenyl)-1-methyl-6,7-dihydro-5H-benzo[c][1,2,3]triazolo[1,5-a]azepin-7-amine] | –
19 | 7.61 | 7.47 | 6.17 | Cc1nnn2c1-c1ccc(-c3ccnc4[nH]ccc34)cc1C(Nc1ccc(Cl)cc1)CC2 (centres unmarked) [RB31, N-(4-chlorophenyl)-1-methyl-9-(1H-pyrrolo[2,3-b]pyridin-4-yl)-6,7-dihydro-5H-benzo[c][1,2,3]triazolo[1,5-a]azepin-7-amine] | –
20 | 7.59 | 7.28 | 6.49 | Cc1nnn2c1-c1ccc(-c3cccc4[nH]cnc34)cc1C(Nc1ccc(Cl)cc1)CC2 (centres unmarked) [RB42, 9-(1H-benzo[d]imidazol-4-yl)-N-(4-chlorophenyl)-1-methyl-6,7-dihydro-5H-benzo[c][1,2,3]triazolo[1,5-a]azepin-7-amine] | –
21 | 8.05 | 7.20 | 7.50 | Cc1nnn2c1-c1ccc(-c3cnn(C)c3)cc1C(N(C)c1ccc(Cl)cc1)CC2 (centres unmarked) [RB66, N-(4-chlorophenyl)-N,1-dimethyl-9-(1-methyl-1H-pyrazol-4-yl)-6,7-dihydro-5H-benzo[c][1,2,3]triazolo[1,5-a]azepin-7-amine] | –
22 | 7.45 | 6.99 | 6.59 | Cc1nnn2c1-c1ccc(-c3cncc4[nH]ccc34)cc1C(Nc1ccc(Cl)cc1)CC2 (centres unmarked) [RB90, N-(4-chlorophenyl)-1-methyl-9-(1H-pyrrolo[2,3-c]pyridin-4-yl)-6,7-dihydro-5H-benzo[c][1,2,3]triazolo [1,5-a]azepin-7-amine] | –

Source: US12286435B2, “Compound having benzo seven-membered ring structure, preparation method therefor, and use thereof” (BIONNA (BEIJING) MEDICAL TECHNOLOGY CO., LTD., priority 2019, dated 2025)
